Assay results published in patent US20060160701A1, “Natural herbicidal agent containing momilactones A and B identified in and isolated from rice hulls” (Konkuk University Industrial Cooperation Corp., priority 2005, published 2006).

What was measured:
[1] = tested on: duckweed (Lemna paucicostata Hegelm 381); assay: Bioactivity assay using duckweed (Lemna assay); type: in vivo; settings: 5 days; for Visual injury symptoms (%): scale 0 (no effect) to 100 (complete death)
Experimental: (§1) The momilactones thus isolated and purified according to the method were dissolved in acetone containing a non-ionic surfactant, Tween-20, and diluted with ½ hunter medium, thus generating a growth/germination inhibition solution. The solution contained acetone and Tween-20 in final concentrations of 1% and 0.01% by weight, respectively. The acetone and Tween-20 were found not to cause growth or germination inhibition.
After 2 ml of the growth/germination inhibition solution, prepared in Example, was aliquotted in triplets into a 24-well plate, one duckweed plant having four fronds was transplanted into each well. The plate was incubated in a growth chamber (26° C., 14 h photoperiod, 50 μmol/m^2s) for 5 days. Herbicidal activity was determined by visual scoring and by measuring the chlorophyll content.
The chlorophyll was extracted in DMSO (dimethyl sulfoxide), and absorbance was measured using a UV-VIS spectrophotometer. The chlorophyll content was determined based on the absorbance data according to a method described by Hiscox and Israelstam (Hiscox, J. D. and Israelstam, G. F., Can. J. Bot., 57, 1332-1334, 1979).
The inhibitory effects of the compounds on chlorophyll content in duckweed were expressed as a percentage (%) of the corresponding values obtained for a control.
Thus, a minus value indicates growth stimulation, and a plus value indicates growth inhibition. • Chlorophyll content (μg/ml)=2.367×(absorbance)^2+6.299×absorbance+0.169 (r=0.999) • Inhibition of chlorophyll content (%)=[(control-test group)/control]×100

[2] = tested on: Amaranthus retroflexus L.; assay: Germination assay in culture tube (GACT), Amaranthus retroflexus seeds; type: in vivo; settings: III: Amaranthus retroflexus L., seven days
Experimental: as §1
(§2) Seeds of three weed species, Leptochloa chinensis L., Amaranthus retroflexus L. and Cyperus difformis L., which were collected on October 2002 and stored at −35° C. after floating matter was removed using distilled water, were used in this test.
(§3) The weed seeds were surface-sterilized in a 1:10 (v/v) dilution of an aqueous hypochlorite solution for 10 min and washed with distilled water several times according to a method described by Choi et al. (CHOI, J. S. et al., Korean J. Weed Sci., 22, 339-413, 2002).
(§4) 650 mg of sea sand was placed into disposable culture tubes (12×75 mm), which contained the growth/germination inhibition solution at concentrations of 4, 20, 100 and 1000 ppm. 2 mg of each seed of the three weed species was added to the tubes, and was then incubated in a growth chamber (25° C., 12 h photoperiod, 20 μmol/m^2s).
(§5) After seven days, percentage germination of the weed seeds was determined. Using the percentage germination, the inhibitory effects of the growth/germination inhibition solution on germination and fresh weight of the seeds were evaluated. • Germination inhibition (%)=[(control−test group)/control]×100 • Fresh weight inhibition (%)=[(control−test group)/control]×100

[3] = tested on: Cyperus difformis L.; assay: Germination assay in culture tube (GACT), Cyperus difformis seeds; type: in vivo; settings: I: Cyperus difformis L., seven days
Experimental: as §1, §2, §3, §4, §5

[4] = tested on: Leptochloa chinensis (L.) Ness; assay: Germination assay in culture tube (GACT), Leptochloa chinensis seeds; type: in vivo; settings: II: Leptochloa chinensis (L.) Ness, seven days
Experimental: as §1, §2, §3, §4, §5

[5] = tested on: rice seedlings; settings: Kato-Naguchi et al., Physiologia Plantarum 115, 2002; cited from earlier work
[6] = tested on: three weed species, Leptochloa chinensis L., Amaranthus retroflexus L. and Cyperus difformis L.; assay: Germination assay in culture tube (GACT), three weed species taken together; type: in vivo; settings: 20 ppm
Experimental: as §1, §2
The weed seeds were surface-sterilized in a 1:10 (v/v) dilution of an aqueous hypochlorite solution for 10 min and washed with distilled water several times according to a method described by Choi et al. (CHOI, J. S. et al., Korean J. Weed Sci., 22, 339-413, 2002). […]
as §5

[7] = tested on: lettuce seeds; settings: derivatives of momilactones A and B; Kato et al., Phytochemistry 16, 1977; cited from earlier work
[8] = tested on: rice roots; settings: derivatives of momilactones A and B; Kato et al., Phytochemistry 16, 1977; cited from earlier work

Molecule | Inhibition of chlorophyll content (%) ([1]; 1 ppm) | Visual injury symptoms (%) ([1]; 1 ppm) | Inhibition of chlorophyll content (%) ([1]; 3.3 ppm) | Visual injury symptoms (%) ([1]; 3.3 ppm) | Inhibition of chlorophyll content (%) ([1]; 10 ppm) | Visual injury symptoms (%) ([1]; 10 ppm) | Inhibition of chlorophyll content (%) ([1]; 33 ppm) | Visual injury symptoms (%) ([1]; 33 ppm) | Inhibition of chlorophyll content (%) ([1]; 100 ppm) | Visual injury symptoms (%) ([1]; 100 ppm) | Fresh weight inhibition (%) ([2]; 4 ppm) | Germination inhibition (%) ([2]; 4 ppm) | Fresh weight inhibition (%) ([2]; 20 ppm) | Germination inhibition (%) ([2]; 20 ppm) | Fresh weight inhibition (%) ([2]; 100 ppm) | Germination inhibition (%) ([2]; 100 ppm) | Fresh weight inhibition (%) ([2]; 1000 ppm) | Germination inhibition (%) ([2]; 1000 ppm) | Fresh weight inhibition (%) ([3]; 4 ppm) | Germination inhibition (%) ([3]; 4 ppm) | also measured
C=C[C@]1(C)CC[C@@H]2C(=C[C@H]3OC(=O)[C@@]4(C)C(=O)CC[C@@]2(C)[C@@H]34)C1 [Momilactone A] | 27.0% | 20% | 52.3% | 50% | 85.8% | 70% | 95.6% | 90% | 98.9% | 95% | 0% | 20% | 18.6% | 20% | 33.3% | 30% | 100% | 100% | 0% | 20% | Fresh weight inhibition (%) ([3]; 20 ppm): 100%; Germination inhibition (%) ([3]; 20 ppm): 97.5%; Fresh weight inhibition (%) ([3]; 100 ppm): 100%; Germination inhibition (%) ([3]; 100 ppm): 100%; Fresh weight inhibition (%) ([3]; 1000 ppm): 100%; Germination inhibition (%) ([3]; 1000 ppm): 100%; Fresh weight inhibition (%) ([4]; 4 ppm): 0%; Germination inhibition (%) ([4]; 4 ppm): 0%; Fresh weight inhibition (%) ([4]; 20 ppm): 0%; Germination inhibition (%) ([4]; 20 ppm): 0%; Fresh weight inhibition (%) ([4]; 100 ppm): 48.4%; Germination inhibition (%) ([4]; 100 ppm): 70%; Fresh weight inhibition (%) ([4]; 1000 ppm): 100%; Germination inhibition (%) ([4]; 1000 ppm): 100%
C=C[C@]1(C)CC[C@@H]2C(=C[C@H]3OC(=O)[C@]4(C)[C@H]3[C@]23CC[C@@]4(O)OC3)C1 [Momilactone B] | 33.9% | 20% | 91.9% | 70% | 98.3% | 98% | 100% | 100% | 100% | 100% | 12.5% | 15% | 100% | 100% | 100% | 100% | 100% | 100% | 15% | 23.3% | inhibition of the growth of rice seedlings [5]: inhibiting the growth of rice seedlings; Visual injury symptoms (%) ([1]; 33 ppm, listed as momilactone B): complete death; Visual injury symptoms (%) ([1]; 100 ppm, listed as momilactone B): complete death; inhibition of germination of all tested weed species [6]: completely inhibited; inhibition of growth of all tested weed species [6]: completely inhibited; Fresh weight inhibition (%) ([3]; 20 ppm): 100%; Germination inhibition (%) ([3]; 20 ppm): 100%; Fresh weight inhibition (%) ([3]; 100 ppm): 100%; Germination inhibition (%) ([3]; 100 ppm): 100%; Fresh weight inhibition (%) ([3]; 1000 ppm): 100%; Germination inhibition (%) ([3]; 1000 ppm): 100%; Fresh weight inhibition (%) ([4]; 4 ppm): 23.3%; Germination inhibition (%) ([4]; 4 ppm): 100%; Fresh weight inhibition (%) ([4]; 20 ppm): 100%; Germination inhibition (%) ([4]; 20 ppm): 100%; Fresh weight inhibition (%) ([4]; 100 ppm): 100%; Germination inhibition (%) ([4]; 100 ppm): 100%; Fresh weight inhibition (%) ([4]; 1000 ppm): 100%; Germination inhibition (%) ([4]; 1000 ppm): 100%
acetyl momilactone B | – | – | – | – | – | – | – | – | – | – | – | – | – | – | – | – | – | – | – | – | inhibition of the germination of lettuce seeds [7]: strongest inhibitory activity; inhibition of the growth of rice roots [8]: strongest inhibitory activity
3-hydro momilactone A | – | – | – | – | – | – | – | – | – | – | – | – | – | – | – | – | – | – | – | – | inhibition of the germination of lettuce seeds [7]: strongest inhibitory activity; inhibition of the growth of rice roots [8]: strongest inhibitory activity
